Assay results taken from PMC10233829 (ACS Omega, 2023).
In brackets after ≈: the same amount, converted by molar mass.

Legend:
[1] = test system: S. aureus NCTC 4163; assay: MIC, twofold microdilution, standard strain; type: cell-based; conditions: Staphylococcus aureus, NCTC4163, 18 h
[2] = test system: S. aureus ATCC 25923; assay: MIC, twofold microdilution, standard strain; type: cell-based; conditions: Staphylococcus aureus, ATCC25923, 18 h
[3] = test system: S. aureus ATCC 6538; assay: MIC, twofold microdilution, standard strain; type: cell-based, Staphylococcus aureus; conditions: Staphylococcus aureus, ATCC6538; standard strain, 18 h
[4] = test system: S. aureus ATCC 29213; assay: MIC, twofold microdilution, standard strain; type: cell-based; conditions: Staphylococcus aureus, ATCC29213, 18 h
[5] = test system: S. epidermidis ATCC 12228; assay: MIC, twofold microdilution, standard strain; type: cell-based; conditions: Staphylococcus epidermidis, ATCC12228, 18 h
[6] = test system: S. epidermidis ATCC 35984; assay: MIC, twofold microdilution, standard strain; type: cell-based; conditions: Staphylococcus epidermidis, ATCC35984, 18 h
[7] = test system: P. aeruginosa ATCC 15442; assay: MIC, twofold microdilution, standard strain; type: cell-based, Pseudomonas aeruginosa; conditions: Pseudomonas aeruginosa, ATCC15442; standard strain, 18 h
[8] = test system: E. coli ATCC 25922; assay: MIC, twofold microdilution, standard strain; type: cell-based, Escherichia coli; conditions: Escherichia coli, ATCC25922; standard strain, 18 h
[9] = test system: S. aureus 180; assay: MIC, twofold microdilution, clinical strain; type: cell-based; conditions: Staphylococcus aureus, 18 h
[10] = test system: S. aureus 5595; assay: MIC, twofold microdilution, clinical strain; type: cell-based; conditions: Staphylococcus aureus, 18 h
[11] = test system: S. aureus T5595; assay: MIC, twofold microdilution, clinical strain; type: cell-based, Staphylococcus aureus; conditions: for MIC: Staphylococcus aureus, T5595, 18 h
[12] = test system: S. aureus T5591; assay: MIC, twofold microdilution, clinical strain; type: cell-based, Staphylococcus aureus; conditions: for MIC: Staphylococcus aureus, T5591, 18 h
[13] = test system: S. epidermidis 4341; assay: MIC, twofold microdilution, clinical strain; type: cell-based; conditions: Staphylococcus epidermidis, 18 h
[14] = test system: S. epidermidis 5253; assay: MIC, twofold microdilution, clinical strain; type: cell-based, Staphylococcus epidermidis; conditions: Staphylococcus epidermidis, 5253, 18 h
[15] = test system: S. epidermidis KR4243/1; assay: MIC, twofold microdilution, clinical strain; type: cell-based; conditions: Staphylococcus epidermidis, 18 h
[16] = test system: S. pasteuri KR 4358; assay: MIC, twofold microdilution, clinical strain; type: cell-based; conditions: Staphylococcus pasteuri, KR4358, 18 h
[17] = test system: P. aeruginosa 37; assay: MIC, twofold microdilution, clinical strain; type: cell-based; conditions: Pseudomonas aeruginosa, 18 h
[18] = test system: P. aeruginosa 659; assay: MIC, twofold microdilution, clinical strain; type: cell-based; conditions: Pseudomonas aeruginosa, 18 h
[19] = test system: E. coli 951; assay: MIC, twofold microdilution, clinical strain; type: cell-based; conditions: Escherichia coli, 18 h
[20] = test system: E. coli 520; assay: MIC, twofold microdilution, clinical strain; type: cell-based; conditions: Escherichia coli, 18 h
[21] = test system: E. coli 600; assay: MIC, twofold microdilution, clinical strain; type: cell-based, Escherichia coli; conditions: Escherichia coli, 600, 18 h
[22] = test system: E. cloacae 8; assay: MIC, twofold microdilution, clinical strain; type: cell-based, Escherichia cloacae; conditions: Enterobacter cloacae, 8; clinical strain, 18 h
[23] = test system: K. pneumoniae 28; assay: MIC, twofold microdilution, clinical strain; type: cell-based; conditions: Klebsiella pneumoniae, 18 h
[24] = test system: K. pneumoniae 510; assay: MIC, twofold microdilution, clinical strain; type: cell-based, Klebsiella pneumoniae; conditions: Klebsiella pneumoniae, 510; clinical strain, 18 h
[25] = test system: M. tuberculosis H37Rv; assay: Tuberculostatic activity, Microplate Alamar Blue Assay (MIC); type: cell-based, Mycobacterium tuberculosis; conditions: Mycobacterium tuberculosis, H37RV; MABA; read-out: MIC M. tuberculosis H37Rv
[26] = test system: M. tuberculosis Spec. 192; assay: as above; type: cell-based; conditions: Mycobacterium tuberculosis, MABA, read-out: MIC M. tuberculosis Spec. 192 (sensitive to tuberculostatics)
[27] = test system: PC3 cells; assay: MTT assay, cytotoxic activity; type: cell-based, human; conditions: for IC50: MTT, 72 h
Outline: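 PC3 cells were grown at 37 °C/5% CO2 and exposed to test compounds. Viability came from MTT reduction, as test absorbance over untreated-control absorbance × 100%.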

[28] = MTT assay, cytotoxic activity; type: cell-based; conditions: human, HaCaT cells (immortal keratinocytes); MTT, 72 h, normal cell line; read-out: IC50 HaCaT
Outline: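 MTT assay on cells grown at 37 °C/5% CO2. Viability is expressed as relative MTT reduction: test absorbance divided by untreated-control absorbance, ×100%.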

[29] = test system: clinical bacterial strains; assay: MIC, clinical isolates as groups of strains; type: cell-based

| Compound | MIC [1] | MIC [2] | MIC [3] | MIC [4] | MIC [5] | MIC [6] | MIC [7] | MIC [8] | MIC [9] | MIC [10] | MIC [11] | MIC [12] | MIC [13] | MIC [14] | MIC [15] | MIC [16] | MIC [17] | MIC [18] | MIC [19] | MIC [20] | further results |
| --- | --- | --- | --- | --- | --- | --- | --- | --- | --- | --- | --- | --- | --- | --- | --- | --- | --- | --- | --- | --- | --- |
| O=C(O)c1cn(C2CC2)c2cc(N3CCN(C(=O)CCl)CC3)c(F)cc2c1=O [Compound 3, 7-[4-(2-Chloroacetyl)-piperazin-1-yl]-1-cyclopropyl-6-fluoro-4-oxo-1,4-dihydro-quinoline-3-carboxylic Acid] | 0.1 µg/mL (≈ 0.245 µM) | 0.2 µg/mL (≈ 0.49 µM) | 0.2 µg/mL (≈ 0.49 µM) | 0.2 µg/mL (≈ 0.49 µM) | 0.2 µg/mL (≈ 0.49 µM) | 0.1 µg/mL (≈ 0.245 µM) | 6.4 µg/mL (≈ 15.7 µM) | 0.2 µg/mL (≈ 0.49 µM) | 0.4 µg/mL (≈ 0.981 µM) | 0.4 µg/mL (≈ 0.981 µM) | 0.1 to 0.2 µg/mL (≈ 0.245 to 0.49 µM) | 0.1 to 0.2 µg/mL (≈ 0.245 to 0.49 µM) | 12.8 µg/mL (≈ 31.4 µM) | > 25.6 µg/mL | 0.2 µg/mL (≈ 0.49 µM) | 0.2 µg/mL (≈ 0.49 µM) | > 25.6 µg/mL | > 25.6 µg/mL | > 25.6 µg/mL | 0.4 µg/mL (≈ 0.981 µM) | MIC S. aureus T5595 ([11]; 18 h): 0.2 µg/mL (≈ 0.49 µM); MIC S. aureus T5591 ([12]; 18 h): 0.1 µg/mL (≈ 0.245 µM); MIC [21]: 0.4 µg/mL (≈ 0.981 µM); MIC [22]: 0.8 µg/mL (≈ 1.96 µM); MIC [23]: > 25.6 µg/mL; MIC [24]: 25.6 µg/mL (≈ 62.8 µM); MIC [25]: 4 µg/mL (≈ 9.81 µM); MIC [26]: 2 µg/mL (≈ 4.9 µM); IC50 ([27]; Homo sapiens, PC-3, 72 h): 2.02 to 4.8 µM; IC50 [27]: 2.02 ± 0.1 µM; IC50 at 72 h [28]: 35.7 ± 8.2 µM; times more powerful than CP ([29]; S. aureus T5595 and T5591): 1.25–2.5 times; MIC ([29]; clinical strains, read-out: MIC against selected E. coli and E. cloacae strains): 0.1 to 0.8 µg/mL (≈ 0.245 to 1.96 µM) |
| O=C(O)c1cn(C2CC2)c2cc(N3CCN(CCCCCCCCCCC(=O)N4CCN(c5cc6c(cc5F)c(=O)c(C(=O)O)cn6C5CC5)CC4)CC3)c(F)cc2c1=O [Compound 21, CP–Undecanoyl–CP Dimer] | 12.8 µg/mL (≈ 15.4 µM) | 12.8 µg/mL (≈ 15.4 µM) | 12.8 µg/mL (≈ 15.4 µM) | 12.8 µg/mL (≈ 15.4 µM) | 25.6 µg/mL (≈ 30.9 µM) | 12.8 µg/mL (≈ 15.4 µM) | > 25.6 µg/mL | 25.6 µg/mL (≈ 30.9 µM) | > 25.6 µg/mL | > 25.6 µg/mL | > 25.6 µg/mL | > 25.6 µg/mL | > 25.6 µg/mL | > 25.6 µg/mL | > 25.6 µg/mL | > 25.6 µg/mL | > 25.6 µg/mL | > 25.6 µg/mL | > 25.6 µg/mL | > 25.6 µg/mL | MIC [21]: > 25.6 µg/mL; MIC [22]: > 25.6 µg/mL; MIC [23]: > 25.6 µg/mL; MIC [24]: > 25.6 µg/mL; MIC [25]: 2 µg/mL (≈ 2.41 µM); MIC [26]: 2 µg/mL (≈ 2.41 µM); IC50 ([27]; Homo sapiens, PC-3, 72 h): 4.8 ± 0.1 µM; fold stronger cytotoxic properties than cisplatin ([27]; PC3): 2.75 fold; IC50 at 72 h [28]: 73.2 ± 10.1 µM |
